Results on ten compounds are retold here after PubChem BioAssay (NCI).

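Dose response: 5 concentrations. Exposure: 48 h. Format: 96-well plates. Endpoint: linear interpolation; highest concentration if not reached. TGI is the concentration that stops growth completely.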 Where only a bound is given, the exact number is not on record here.

The first assay concerns MDA-MB-231 breast. The experiment in a line: NCI-60 cell line screen, 48 h.
Take `Cc1ccc2c(c1C)CC1(Cc3c(ccc4c3CCC4)C1=O)C2=O` (centres undefined): the TGI is over 100 µM.

Compound `COc1cc2oc(-c3ccc(O)cc3)c(OC3OC(C)C(O)C(O)C3O)c(=O)c2c(O)c1OC` (centres undefined) yielded a TGI of over 100 µM.

Compound `O=C1CC2C=CC(O)C(C1)C2` (centres undefined) had a TGI of over 100 µM.

Regarding `Cc1c(S(=O)(=O)c2ccccc2)c(N)n(Cc2ccccc2)c1C`, the TGI is over 100 µM.

Turning to `Cc1ccc(-c2cc(N)n(-c3nc4c([nH]3)c(=O)n(C)c(=O)n4C)n2)cc1`, the TGI was found to be 27.8 µM.

Consider `C/C(=N\NC(=S)NC(C)C)c1nc2ncccc2[nH]1`, for which the TGI was over 100 µM.

For a further assay, the system named is MDA-N. The experiment in a line: NCI-60 cell line screen, 48 h.
Compound `CC(C)(C)C(=O)C(CC(=O)c1ccccc1)C(=O)C(C)(C)C` came in with a TGI of over 100 µM.

`CCOC(=O)c1cc(C2(O)CCN(Cc3ccccc3)C2=O)c(-c2cc(C)no2)[nH]1` (centres undefined) gave a TGI of over 100 µM.

As to `Clc1nc(Cl)nc(NC23CC4CC(CC(C4)C2)C3)n1`, the TGI amounted to 35.3 µM.

Turning to `CCOC(=O)c1cc2c([N+](=O)[O-])c(NC(C)=O)ccc2s1`, the TGI was over 100 µM.

The compound `Cc1ccc2c(c1C)CC1(Cc3c(ccc4c3CCC4)C1=O)C2=O` (centres undefined) came in with a TGI of over 100 µM.

`COc1cc2oc(-c3ccc(O)cc3)c(OC3OC(C)C(O)C(O)C3O)c(=O)c2c(O)c1OC` (centres undefined) showed a TGI of over 100 µM.

`O=C1CC2C=CC(O)C(C1)C2` (centres undefined) came in with a TGI of over 100 µM.

`Cc1c(S(=O)(=O)c2ccccc2)c(N)n(Cc2ccccc2)c1C` displayed a TGI of over 100 µM.

On to `Cc1ccc(-c2cc(N)n(-c3nc4c([nH]3)c(=O)n(C)c(=O)n4C)n2)cc1`, for which the TGI was over 100 µM.

`C/C(=N\NC(=S)NC(C)C)c1nc2ncccc2[nH]1` registered a TGI of over 100 µM.

In the next assay the test system is MOLT-4 leukemia. Briefly: NCI-60 cell line screen, 48 h.
With `CC(C)(C)C(=O)C(CC(=O)c1ccccc1)C(=O)C(C)(C)C`, the TGI is over 100 µM.

`CCOC(=O)c1cc(C2(O)CCN(Cc3ccccc3)C2=O)c(-c2cc(C)no2)[nH]1` (centres undefined): the TGI stood at 41.9 µM.

Regarding `Clc1nc(Cl)nc(NC23CC4CC(CC(C4)C2)C3)n1`, the TGI stood at 51.2 µM.

`CCOC(=O)c1cc2c([N+](=O)[O-])c(NC(C)=O)ccc2s1` displayed a TGI of over 100 µM.

The compound `Cc1ccc2c(c1C)CC1(Cc3c(ccc4c3CCC4)C1=O)C2=O` (centres undefined) came in with a TGI of over 100 µM.

As to `COc1cc2oc(-c3ccc(O)cc3)c(OC3OC(C)C(O)C(O)C3O)c(=O)c2c(O)c1OC` (centres undefined), the TGI was over 100 µM.

Turning to `O=C1CC2C=CC(O)C(C1)C2` (centres undefined), the TGI is over 100 µM.

Compound `Cc1c(S(=O)(=O)c2ccccc2)c(N)n(Cc2ccccc2)c1C` showed a TGI of over 100 µM.

On to `Cc1ccc(-c2cc(N)n(-c3nc4c([nH]3)c(=O)n(C)c(=O)n4C)n2)cc1`, for which the TGI was over 100 µM.

`C/C(=N\NC(=S)NC(C)C)c1nc2ncccc2[nH]1`: the TGI was over 100 µM.

The next assay has as its system NCI-H23 lung. Briefly: NCI-60 cell line screen, 48 h.
With `CC(C)(C)C(=O)C(CC(=O)c1ccccc1)C(=O)C(C)(C)C`, the TGI is over 100 µM.

As for `CCOC(=O)c1cc(C2(O)CCN(Cc3ccccc3)C2=O)c(-c2cc(C)no2)[nH]1` (centres undefined), the TGI is over 100 µM.

`Clc1nc(Cl)nc(NC23CC4CC(CC(C4)C2)C3)n1` displayed a TGI of 34.1 µM.

Compound `CCOC(=O)c1cc2c([N+](=O)[O-])c(NC(C)=O)ccc2s1` showed a TGI of over 100 µM.

With `Cc1ccc2c(c1C)CC1(Cc3c(ccc4c3CCC4)C1=O)C2=O` (centres undefined), the TGI is over 100 µM.

Regarding `COc1cc2oc(-c3ccc(O)cc3)c(OC3OC(C)C(O)C(O)C3O)c(=O)c2c(O)c1OC` (centres undefined), the TGI was over 100 µM.

Take `O=C1CC2C=CC(O)C(C1)C2` (centres undefined): the TGI was over 100 µM.

On to `Cc1c(S(=O)(=O)c2ccccc2)c(N)n(Cc2ccccc2)c1C`, for which the TGI was over 100 µM.

Consider `Cc1ccc(-c2cc(N)n(-c3nc4c([nH]3)c(=O)n(C)c(=O)n4C)n2)cc1`, for which the TGI worked out at 28 µM.

For a further assay, the system named is SNB-19 CNS. Briefly: NCI-60 cell line screen, 48 h.
The compound `CC(C)(C)C(=O)C(CC(=O)c1ccccc1)C(=O)C(C)(C)C` showed a TGI of over 100 µM.

The compound `CCOC(=O)c1cc(C2(O)CCN(Cc3ccccc3)C2=O)c(-c2cc(C)no2)[nH]1` (centres undefined) gave a TGI of over 100 µM.

`Clc1nc(Cl)nc(NC23CC4CC(CC(C4)C2)C3)n1` came in with a TGI of 40.3 µM.

`CCOC(=O)c1cc2c([N+](=O)[O-])c(NC(C)=O)ccc2s1` had a TGI of over 100 µM.

On to `Cc1ccc2c(c1C)CC1(Cc3c(ccc4c3CCC4)C1=O)C2=O` (centres undefined), for which the TGI is over 100 µM.

The compound `COc1cc2oc(-c3ccc(O)cc3)c(OC3OC(C)C(O)C(O)C3O)c(=O)c2c(O)c1OC` (centres undefined) displayed a TGI of over 100 µM.

In turn, `O=C1CC2C=CC(O)C(C1)C2` (centres undefined) registered a TGI of over 100 µM.

`Cc1c(S(=O)(=O)c2ccccc2)c(N)n(Cc2ccccc2)c1C` gave a TGI of over 100 µM.

As for `Cc1ccc(-c2cc(N)n(-c3nc4c([nH]3)c(=O)n(C)c(=O)n4C)n2)cc1`, the TGI is over 100 µM.

`C/C(=N\NC(=S)NC(C)C)c1nc2ncccc2[nH]1` gave a TGI of over 91.6 µM.

The subject of the next assay is SW-620 colon. The experiment in a line: NCI-60 cell line screen, 48 h.
As to `CC(C)(C)C(=O)C(CC(=O)c1ccccc1)C(=O)C(C)(C)C`, the TGI was over 100 µM.

The compound `CCOC(=O)c1cc(C2(O)CCN(Cc3ccccc3)C2=O)c(-c2cc(C)no2)[nH]1` (centres undefined) had a TGI of over 100 µM.

In the case of `Clc1nc(Cl)nc(NC23CC4CC(CC(C4)C2)C3)n1`, the TGI worked out at 31.5 µM.

`CCOC(=O)c1cc2c([N+](=O)[O-])c(NC(C)=O)ccc2s1` yielded a TGI of over 100 µM.

Regarding `Cc1ccc2c(c1C)CC1(Cc3c(ccc4c3CCC4)C1=O)C2=O` (centres undefined), the TGI is over 100 µM.

For `COc1cc2oc(-c3ccc(O)cc3)c(OC3OC(C)C(O)C(O)C3O)c(=O)c2c(O)c1OC` (centres undefined), the TGI is over 100 µM.

In turn, `O=C1CC2C=CC(O)C(C1)C2` (centres undefined) showed a TGI of over 100 µM.

For `Cc1c(S(=O)(=O)c2ccccc2)c(N)n(Cc2ccccc2)c1C`, the TGI was over 100 µM.

With `C/C(=N\NC(=S)NC(C)C)c1nc2ncccc2[nH]1`, the TGI was over 100 µM.
